In patent US9023789B2, “Amylin analogs and pharmaceutical compositions thereof” (Novo Nordisk A/S, priority 2012, dated 2015):
Numbered stars: 1 amine (or outer) side, 2 acyl side, 3 side chain; on linkers, the order of the positions; unused ones are H or OH. Bridge positions count the residues as written; N and C are the ends. Side chains are listed from the residue outwards. Peptide text beside a SMILES is read from it. * marks the point of attachment. C20 diacid = O=C(O)CCCCCCCCCCCCCCCCCCC(=O)*; γGlu = O=C(O)[C@H](CCC(=O)[*:2])N[*:1]

Experiments:
[1] = biological target: T1, human amylin receptor (membranes from Amylin 3(a)/CRE-luc cells) (Homo sapiens, UniProt O60896+P30988); test: ASSAY (V) binding to the human amylin receptor (SPA, 125I-rat amylin);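 further: competition binding of cell membranes (35 ng/µL) mixed with SPA beads in 384-well plates at 40 µL total volume, read by scintillation counting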
T1 construct: expressed in transfected cells
T1 sequence (P30988 25-474): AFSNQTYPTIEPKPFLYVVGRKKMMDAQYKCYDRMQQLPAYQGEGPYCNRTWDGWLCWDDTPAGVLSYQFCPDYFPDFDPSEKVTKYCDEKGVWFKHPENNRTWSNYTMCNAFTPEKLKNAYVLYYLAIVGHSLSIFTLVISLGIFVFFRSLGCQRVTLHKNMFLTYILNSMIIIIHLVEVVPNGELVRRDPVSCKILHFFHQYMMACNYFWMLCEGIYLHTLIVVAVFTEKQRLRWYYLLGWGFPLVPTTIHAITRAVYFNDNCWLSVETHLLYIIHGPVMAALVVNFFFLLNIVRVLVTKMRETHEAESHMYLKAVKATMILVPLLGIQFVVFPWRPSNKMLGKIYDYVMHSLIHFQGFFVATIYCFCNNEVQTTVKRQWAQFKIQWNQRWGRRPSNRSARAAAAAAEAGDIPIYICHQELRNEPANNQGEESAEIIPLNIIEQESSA
T1 sequence (O60896 24-148 partner): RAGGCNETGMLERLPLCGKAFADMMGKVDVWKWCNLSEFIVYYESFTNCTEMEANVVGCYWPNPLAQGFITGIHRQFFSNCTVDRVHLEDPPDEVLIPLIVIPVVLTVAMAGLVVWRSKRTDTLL
Protocol: The binding assay was performed using scintillation proximity assay (SPA) beads (RPNQ0001) from PerkinElmer and cell membranes from the Amylin 3(a)/CRE-luc cells (as described in Assay (II)) were used. Membranes were prepared in the following way; the cells were rinsed with PBS and incubated with Versene for approximately 5 min before harvesting. The cells were flushed with PBS and the cell-suspension was centrifuged for 5 min at 1000 rpm. […] The resulting pellet was resuspended in buffer 2 and protein concentration was measured (BCA protein Assay, Pierce). The homogenate was kept cold during the whole procedure. The membranes were kept at −80° C. until use. The assay was performed in a 384 well Optiplate (PerkinElmer) in a total volume of 40 ul. Membranes were mixed with SPA beads. Final concentration of membranes 35 ng/μL final and SPA beads was 0.05 mg/well. Test-compounds were dissolved in DMSO and further diluted in assay buffer (50 mM Hepes, pH 7.4, 1 mM CaCl2, 5 mM MgCl2, 0.1% OA and 0.02% Tween20). […] Samples were analyzed on TopCounter™ (Packard). The IC50 was calculated using (one site binding competition analysis) GraphPad Prism5 as a measure of receptor affinity.

rat calcitonin receptor = biological target: T2, rat calcitonin receptor (Rattus norvegicus, UniProt P32214); test: ASSAY (VIII) binding to the rat calcitonin receptor; settings: Table 7, read-out: rCTR bind IC50
T2 construct: expressed in transfected cells; host or cells: BHK tk'ts 13 (transient, FuGENE 6), membranes
T2 sequence (P32214 25-479 isoform P32214-2 limits assumed): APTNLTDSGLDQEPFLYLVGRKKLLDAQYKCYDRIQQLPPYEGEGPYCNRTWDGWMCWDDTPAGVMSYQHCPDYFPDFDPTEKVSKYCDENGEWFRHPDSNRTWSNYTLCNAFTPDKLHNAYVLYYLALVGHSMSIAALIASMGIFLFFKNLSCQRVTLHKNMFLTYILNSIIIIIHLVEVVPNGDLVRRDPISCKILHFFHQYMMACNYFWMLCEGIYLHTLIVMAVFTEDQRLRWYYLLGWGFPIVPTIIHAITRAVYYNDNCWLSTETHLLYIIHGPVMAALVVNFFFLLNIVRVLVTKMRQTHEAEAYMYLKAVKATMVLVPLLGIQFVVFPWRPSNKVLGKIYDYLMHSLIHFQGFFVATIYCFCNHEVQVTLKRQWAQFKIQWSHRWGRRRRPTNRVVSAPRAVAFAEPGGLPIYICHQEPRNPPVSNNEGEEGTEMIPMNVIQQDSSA
Method in brief: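 Cell membranes for binding came from BHK tk′ts 13 cells harvested approximately 48 hours after transient transfection with the rat receptor.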

[2] = biological target: T3, human amylin 3(a) receptor (human calcitonin receptor + RAMP-3) in BHK570 cells (Homo sapiens, UniProt O60896+P30988); test: ASSAY (II)a functional assay, human amylin receptor (CRE luciferase); type: cell-based
T3 construct: expressed in transfected cells
Method in brief: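 Receptor activation is measured as cAMP-driven CRE-luciferase expression in BHK cells expressing the calcitonin receptor, with RAMP-3 co-expressed to form the amylin 3(a) receptor. Cells are exposed to compound for 3 hours at 37° C, and luciferase is then quantified by luminescence.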

[3] = Table 5, selectivity, hCTR bind IC50 / hAmylin-R bind IC50
[4] = Table 5a, selectivity, hCTR bind IC50 / hAmylin-R bind IC50
[5] = Table 5b, selectivity, hCTR bind IC50 / hAmylin-R bind IC50
[6] = Table 5c, selectivity, hCTR bind IC50 / hAmylin-R bind IC50
[7] = Table 7, human binding selectivity, included for comparison
[8] = Table 7a (preferred compounds), human binding selectivity, included for comparison
[9] = ratio of human calcitonin receptor binding IC50 to human amylin receptor binding IC50
[10] = hCTR funct. EC50 divided by hAmylin-R funct. EC50
[11] = hCTR funct. EC50 over hAmylin-R funct. EC50
[12] = human functional selectivity: hCTR funct. EC50 / hAmylin-R funct. EC50

Row | SMILES | Ratio hCT/hAmylin binding [1, 3] | Ratio hCT/hAmylin binding [1, 4] | Ratio hCT/hAmylin binding [1, 5] | Ratio hCT/hAmylin binding [1, 6] | Ratio hCT/hAmylin binding [1, 7] | Ratio hCT/hAmylin binding [1, 8] | Ratio hCT/hAmylin binding [1, 9] | IC50 (rat calcitonin receptor) [nM] | Ratio hCT/hAmylin funct. [2, 10] | Ratio hCT/hAmylin funct. [2, 11] | Ratio hCT/hAmylin funct. [2, 12] | IC50 ([1]; Table 4, read-out: hAmylin-R bind IC50) [nM] | EC50 ([2]; human amylin receptor functional potency, assay (II), read-out: hAmylin-R funct. EC50) [nM]
1 | CC[C@H](C)[C@H](NC(=O)[C@H](C)NC(=O)CNC(=O)[C@H](Cc1ccccc1)NC(=O)[C@H](CC(N)=O)NC(=O)[C@@H]1CCCN1C(=O)[C@H](CO)NC(=O)[C@H](CO)NC(=O)[C@H](Cc1c[nH]cn1)NC(=O)[C@H](CCCNC(=N)N)NC(=O)[C@H](CC(C)C)NC(=O)[C@H](Cc1ccccc1)NC(=O)[C@H](CC(N)=O)NC(=O)[C@H](C)NC(=O)[C@H](CC(C)C)NC(=O)[C@H](CCCNC(=N)N)NC(=O)[C@H](CCC(N)=O)NC(=O)[C@@H](NC(=O)[C@H](C)NC(=O)[C@@H]1CSSC[C@H](NC(=O)[C@H](CCCCN)NC(=O)COCCOCCNC(=O)COCCOCCNC(=O)CC[C@H](NC(=O)CCCCCCCCCCCCCCCCCCC(=O)O)C(=O)O)C(=O)N[C@@H](CC(N)=O)C(=O)N[C@@H]([C@@H](C)O)C(=O)N[C@@H](C)C(=O)N[C@@H]([C@@H](C)O)C(=O)N1)[C@@H](C)O)C(=O)N1CCC[C@H]1C(=O)N[C@@H](CO)C(=O)N[C@@H](CO)C(=O)N[C@H](C(=O)N[C@@H](CC(N)=O)C(=O)N[C@H](C(=O)NCC(=O)N[C@@H](CO)C(=O)N[C@@H](CC(N)=O)C(=O)N[C@H](C(=O)N[C@@H](Cc1ccc(O)cc1)C(N)=O)[C@@H](C)O)C(C)C)[C@@H](C)O [Example 24] | 90.0 | 90.0 | 90.0 | 90.0 | 90.0 | 90.0 | 90.0 | 350 | 23.1 | 23.1 | 23.1 | – | –
2 | CC[C@H](C)[C@H](NC(=O)[C@H](C)NC(=O)CNC(=O)[C@H](Cc1ccccc1)NC(=O)[C@H](CC(N)=O)NC(=O)[C@@H]1CCCN1C(=O)[C@H](CO)NC(=O)[C@H](CO)NC(=O)[C@H](Cc1c[nH]cn1)NC(=O)[C@H](CCCNC(=N)N)NC(=O)[C@H](CC(C)C)NC(=O)[C@H](Cc1ccccc1)NC(=O)[C@H](CC(N)=O)NC(=O)[C@H](C)NC(=O)[C@H](CC(C)C)NC(=O)[C@H](CCCNC(=N)N)NC(=O)[C@H](CCC(N)=O)NC(=O)[C@@H](NC(=O)[C@H](C)NC(=O)[C@@H]1CSSC[C@H](NC(=O)[C@@H](N)CCCCNC(=O)CC[C@H](NC(=O)CCCCCCCCCCCCCCCCC(=O)O)C(=O)O)C(=O)N[C@@H](CC(N)=O)C(=O)N[C@@H]([C@@H](C)O)C(=O)N[C@@H](C)C(=O)N[C@@H]([C@@H](C)O)C(=O)N1)[C@@H](C)O)C(=O)N1CCC[C@H]1C(=O)N[C@@H](CO)C(=O)N[C@@H](CO)C(=O)N[C@H](C(=O)N[C@@H](CC(N)=O)C(=O)N[C@H](C(=O)NCC(=O)N[C@@H](Cc1c[nH]cn1)C(=O)N[C@@H](CC(N)=O)C(=O)N[C@H](C(=O)N[C@@H](Cc1ccc(O)cc1)C(N)=O)[C@@H](C)O)C(C)C)[C@@H](C)O [Example 113] | 59.4 | 59.4 | 59.4 | 59.4 | 59.4 | 59.4 | 59.4 | 47 | 60.9 | 60.9 | 60.9 | – | –
3 | CC[C@H](C)[C@H](NC(=O)[C@H](C)NC(=O)CNC(=O)[C@H](Cc1ccccc1)NC(=O)[C@H](CC(N)=O)NC(=O)[C@@H]1CCCN1C(=O)[C@H](CO)NC(=O)[C@H](CO)NC(=O)[C@H](Cc1c[nH]cn1)NC(=O)[C@H](CCCNC(=N)N)NC(=O)[C@H](CC(C)C)NC(=O)[C@H](Cc1ccccc1)NC(=O)[C@H](CC(N)=O)NC(=O)[C@H](C)NC(=O)[C@H](CC(C)C)NC(=O)[C@H](CCCNC(=N)N)NC(=O)[C@H](CCC(N)=O)NC(=O)[C@@H](NC(=O)[C@H](C)NC(=O)[C@@H]1CSSC[C@H](NC(=O)[C@@H](N)CCCCNC(=O)CC[C@H](NC(=O)CC[C@H](NC(=O)CCCCCCCCCCCCCCCCCCC(=O)O)C(=O)O)C(=O)O)C(=O)N[C@@H](CC(N)=O)C(=O)N[C@@H]([C@@H](C)O)C(=O)N[C@@H](C)C(=O)N[C@@H]([C@@H](C)O)C(=O)N1)[C@@H](C)O)C(=O)N1CCC[C@H]1C(=O)N[C@@H](CO)C(=O)N[C@@H](CO)C(=O)N[C@H](C(=O)N1CCC[C@H]1C(=O)N[C@H](C(=O)NCC(=O)N1CCC[C@H]1C(=O)N[C@@H](CCCNC(=N)N)C(=O)N[C@H](C(=O)N[C@@H](Cc1ccc(O)cc1)C(N)=O)[C@@H](C)O)C(C)C)[C@@H](C)O [Example 119] (H-K([γGlu-γGlu-C20 diacid])CNTATCATQRLANFLRHSSPNFGAIPSSTPVGPRTY-NH2; disulfide 2-7) | 48.6 | 48.6 | 48.6 | 48.6 | 48.6 | 48.6 | 48.6 | 52.4 | 26.0 | 26.0 | 26.0 | 0.88 | 0.333
4 | CC[C@H](C)[C@H](NC(=O)[C@H](C)NC(=O)CNC(=O)[C@H](Cc1ccccc1)NC(=O)[C@H](CC(N)=O)NC(=O)[C@@H]1CCCN1C(=O)[C@H](CO)NC(=O)[C@H](CO)NC(=O)[C@H](Cc1c[nH]cn1)NC(=O)[C@H](CCCNC(=N)N)NC(=O)[C@H](CC(C)C)NC(=O)[C@H](Cc1ccccc1)NC(=O)[C@H](CC(=O)O)NC(=O)[C@H](C)NC(=O)[C@H](CC(C)C)NC(=O)[C@H](CCCNC(=N)N)NC(=O)[C@H](CCC(N)=O)NC(=O)[C@@H](NC(=O)[C@H](C)NC(=O)[C@@H]1CSSC[C@H](NC(=O)[C@@H](N)CCCCNC(=O)CC[C@H](NC(=O)CC[C@H](NC(=O)CCCCCCCCCCCCCCCCCCC(=O)O)C(=O)O)C(=O)O)C(=O)N[C@@H](CC(N)=O)C(=O)N[C@@H]([C@@H](C)O)C(=O)N[C@@H](C)C(=O)N[C@@H]([C@@H](C)O)C(=O)N1)[C@@H](C)O)C(=O)N1CCC[C@H]1C(=O)N[C@@H](CO)C(=O)N[C@@H](CO)C(=O)N[C@H](C(=O)N[C@@H](CC(N)=O)C(=O)N[C@H](C(=O)NCC(=O)N[C@@H](CO)C(=O)N[C@@H](CC(=O)O)C(=O)N[C@H](C(=O)N[C@@H](Cc1ccc(O)cc1)C(N)=O)[C@@H](C)O)C(C)C)[C@@H](C)O [Example 2] (H-K([γGlu-γGlu-C20 diacid])CNTATCATQRLADFLRHSSPNFGAIPSSTNVGSDTY-NH2; disulfide 2-7; N-terminus assumed) | 47.5 | 47.5 | 47.5 | 47.5 | 47.5 | 47.5 | 47.5 | 108 | 16.4 | 16.4 | 16.4 | – | –
